# US6737383B1, “Herbicidal oxadiazolidines” (priority 1999, dated 2004)
# Key:
# [1] = test system: wheat; experiment: Test B pre/postemergence wheat; assay type: in vivo, Triticum aestivum
# How it was run: (§1)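 Response is a visual 0-to-10 score relative to untreated plants, where 0 means no effect and 10 means complete control, taken twelve to sixteen days after application. Treatments went onto soil at planting and onto foliage of 1- to 4-leaf plants, using a surfactant-containing non-phytotoxic solvent.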
# [2] = test system: pigweed; experiment: Test B pre/postemergence pigweed; assay type: in vivo, Amaranthus retroflexus
# How it was run: as §1
# [3] = test system: purple nutsedge; experiment: Test B pre/postemergence purple nutsedge; assay type: in vivo, Cyperus rotundus
# How it was run: as §1
# [4] = test system: bedstraw; experiment: Test B pre/postemergence bedstraw; assay type: in vivo, Galium aparine
# How it was run: as §1
# [5] = test system: soybean; experiment: Test B pre/postemergence soybean; assay type: in vivo, Glycine max
# How it was run: as §1
# [6] = test system: corn; experiment: Test B pre/postemergence corn; assay type: in vivo, Zea mays
# How it was run: as §1
# [7] = test system: crabgrass; experiment: Test B pre/postemergence crabgrass; assay type: in vivo, Digitaria sanguinalis
# How it was run: as §1
# [8] = test system: cocklebur; experiment: Test B pre/postemergence cocklebur; assay type: in vivo, Xanthium strumarium
# How it was run: as §1
# [9] = test system: rape; experiment: Test B pre/postemergence rape; assay type: in vivo, Brassica napus
# How it was run: as §1
# [10] = test system: wild oat; experiment: Test B pre/postemergence wild oat; assay type: in vivo, Avena fatua
# How it was run: as §1
# [11] = test system: velvetleaf; experiment: Test B pre/postemergence velvetleaf; assay type: in vivo, Abutilon theophrasti
# How it was run: as §1
# [12] = test system: surinam grass; experiment: Test B pre/postemergence surinam grass; assay type: in vivo, Brachiaria decumbens
# How it was run: as §1
# [13] = test system: sugar beet; experiment: Test B pre/postemergence sugar beet; assay type: in vivo, Beta vulgaris
# How it was run: as §1
# [14] = test system: blackgrass; experiment: Test B pre/postemergence blackgrass; assay type: in vivo, Alopecurus myosuroides
# How it was run: as §1
# [15] = test system: bamyardgrass; experiment: Test B flood test barnyardgrass; assay type: in vivo, Echinochloa crus-galli
# How it was run: (§2)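 Each value is a visual injury score relative to controls, with 10 meaning complete control and 0 no effect. Evaluation took place twelve to sixteen days after the 2-leaf-stage plants were treated and kept in the greenhouse.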
# [16] = test system: smallflower flatsedge; experiment: Test B flood test smallflower flatsedge; assay type: in vivo, Cyperus difformis
# How it was run: as §2
# [17] = Preemergence, Rate 31 g/ha, visual rating, scale 0 to 10 (0 no effect, 10 complete control)
# [18] = Preemergence, Rate 62 g/ha, scale of 0 to 10 where 0 is no effect and 10 is complete control
# [19] = Preemergence, Rate 250 g/ha, scale of 0 to 10 where 0 is no effect and 10 is complete control
# [20] = Rate 62 g/ha, Postemergence, scale 0 to 10 (0 no effect, 10 complete control)
# [21] = Rate 125 g/ha, Postemergence, scale of 0 to 10 where 0 is no effect and 10 is complete control
# [22] = Rate 125 g/ha, Preemergence, scale of 0 to 10 where 0 is no effect and 10 is complete control
# [23] = Rate 250 g/ha, Postemergence, scale of 0 to 10 where 0 is no effect and 10 is complete control
# [24] = Rate 31 g/ha, Postemergence, scale 0 to 10
# [25] = Rate 31 g/ha, Pre-emergence section (flood test species), scale 0 to 10
# [26] = Rate 62 g/ha, headed Pre-emergence (flood test species), scale 0 to 10 (0 no effect, 10 complete control)
# [27] = Rate 125 g/ha, Pre-emergence, flood test species, scale 0 to 10 where 0 is no effect and 10 is complete control
# [28] = Rate 250 g/ha, Pre-emergence, flood-test species, scale 0 to 10, 0 is no effect, 10 is complete control
smiles,measurement,setting,value
CC(C)=CCn1c(=O)on(C(=O)N(c2ccc(F)cc2)C(C)C)c1=O [Compound 288],Wheat plant response rating,[1]; [17],0
same,Wheat plant response rating,[1]; [18],0
same,Wheat plant response rating,[1]; [19],2
same,Wheat plant response rating,[1]; [20],0
same,Wheat plant response rating,[1]; [21],0
same,Wheat plant response rating,[1]; [22],0
same,"Plant response rating, Wheat",[1]; [23],0
same,Redroot pigweed plant response rating,[2]; [17],0
same,Redroot pigweed plant response rating,[2]; [18],0
same,Redroot pigweed plant response rating,[2]; [19],0
same,Redroot pigweed plant response rating,[2]; [24],0
same,Redroot pigweed plant response rating,[2]; [20],0
same,Redroot pigweed plant response rating,[2]; [21],0
same,Redroot pigweed plant response rating,[2]; [22],0
same,"Plant response rating, Redroot pigweed",[2]; [23],0
same,Nutsedge plant response rating,[3]; [17],0
same,Nutsedge plant response rating,[3]; [18],0
same,Nutsedge plant response rating,[3]; [19],0
same,Nutsedge plant response rating,[3]; [24],0
same,Nutsedge plant response rating,[3]; [20],0
same,Nutsedge plant response rating,[3]; [21],0
same,Nutsedge plant response rating,[3]; [22],0
same,"Plant response rating, Nutsedge",[3]; [23],0
same,Bedstraw plant response rating,[4]; [17],0
same,Bedstraw plant response rating,[4]; [18],0
same,Bedstraw plant response rating,[4]; [19],10
same,Bedstraw plant response rating,[4]; [24],0
same,Bedstraw plant response rating,[4]; [20],0
same,Bedstraw plant response rating,[4]; [21],0
same,Bedstraw plant response rating,[4]; [22],2
same,"Plant response rating, Bedstraw",[4]; [23],0
same,Soybean plant response rating,[5]; [17],0
same,Soybean plant response rating,[5]; [18],0
same,Soybean plant response rating,[5]; [19],0
same,Soybean plant response rating,[5]; [20],0
same,Soybean plant response rating,[5]; [21],2
same,Soybean plant response rating,[5]; [22],0
same,"Plant response rating, Soybean",[5]; [23],2
same,Corn plant response rating,[6]; [17],0
same,Corn plant response rating,[6]; [18],0
same,Corn plant response rating,[6]; [19],0
same,Corn plant response rating,[6]; [24],0
same,Corn plant response rating,[6]; [20],0
same,Corn plant response rating,[6]; [21],0
same,Corn plant response rating,[6]; [22],0
same,"Plant response rating, Corn",[6]; [23],0
same,Crabgrass plant response rating,[7]; [17],0
same,Crabgrass plant response rating,[7]; [18],1
same,Crabgrass plant response rating,[7]; [19],10
same,Crabgrass plant response rating,[7]; [24],0
same,Crabgrass plant response rating,[7]; [20],0
same,Crabgrass plant response rating,[7]; [21],0
same,Crabgrass plant response rating,[7]; [22],2
same,"Plant response rating, Crabgrass",[7]; [23],3
same,Cocklebur plant response rating,[8]; [17],0
same,Cocklebur plant response rating,[8]; [18],0
same,Cocklebur plant response rating,[8]; [19],0
same,Cocklebur plant response rating,[8]; [24],0
same,Cocklebur plant response rating,[8]; [20],0
same,Cocklebur plant response rating,[8]; [21],0
same,Cocklebur plant response rating,[8]; [22],0
same,"Plant response rating, Cocklebur",[8]; [23],1
same,Rape plant response rating,[9]; [17],0
same,Rape plant response rating,[9]; [18],0
same,Rape plant response rating,[9]; [19],0
same,Rape plant response rating,[9]; [24],0
same,Rape plant response rating,[9]; [20],1
same,Rape plant response rating,[9]; [21],2
same,Rape plant response rating,[9]; [22],0
same,"Plant response rating, Rape",[9]; [23],3
same,Wild oats plant response rating,[10]; [17],0
same,Wild oats plant response rating,[10]; [18],0
same,Wild oats plant response rating,[10]; [19],5
same,Wild oats plant response rating,[10]; [20],0
same,Wild oats plant response rating,[10]; [21],0
same,"Plant response rating, Wild oats",[10]; [23],0
same,Velvetleaf plant response rating,[11]; [17],0
same,Velvetleaf plant response rating,[11]; [18],0
same,Velvetleaf plant response rating,[11]; [19],3
same,Velvetleaf plant response rating,[11]; [20],0
same,Velvetleaf plant response rating,[11]; [21],0
same,Velvetleaf plant response rating,[11]; [22],0
same,"Plant response rating, Velvetleaf",[11]; [23],1
same,B. signalgrass plant response rating,[12]; [17],0
same,B. signalgrass plant response rating,[12]; [18],0
same,B. signalgrass plant response rating,[12]; [19],6
same,B. signalgrass plant response rating,[12]; [24],0
same,B. signalgrass plant response rating,[12]; [20],0
same,B. signalgrass plant response rating,[12]; [21],0
same,B. signalgrass plant response rating,[12]; [22],4
same,"Plant response rating, B. signalgrass",[12]; [23],0
same,Sugarbeets plant response rating,[13]; [17],0
same,Sugarbeets plant response rating,[13]; [18],0
same,Sugarbeets plant response rating,[13]; [19],0
same,Sugarbeets plant response rating,[13]; [20],0
same,Sugarbeets plant response rating,[13]; [21],0
same,Sugarbeets plant response rating,[13]; [22],0
same,"Plant response rating, Sugarbeets",[13]; [23],0
same,Blackgrass plant response rating,[14]; [17],0
same,Blackgrass plant response rating,[14]; [18],0
same,Blackgrass plant response rating,[14]; [19],6
same,Blackgrass plant response rating,[14]; [24],0
same,Blackgrass plant response rating,[14]; [20],0
same,Blackgrass plant response rating,[14]; [21],0
same,Blackgrass plant response rating,[14]; [22],2
same,"Plant response rating, Blackgrass",[14]; [23],2
same,Barnyardgrass plant response rating,[15]; [25],0
same,Barnyardgrass plant response rating,[15]; [26],0
same,Barnyardgrass plant response rating,[15]; [27],4
same,Barnyardgrass plant response rating,[15]; [28],9
same,S. Flatsedge plant response rating,[16]; [25],0
same,S. Flatsedge plant response rating,[16]; [26],0
same,S. Flatsedge plant response rating,[16]; [27],0
same,S. Flatsedge plant response rating,[16]; [28],0
